EC50 data for 36 compounds are collected here from US9353051B2, “Antiviral drugs for treatment or prevention of dengue infection” (Siga Technologies Inc., priority 2007, dated 2016).

For the assay, the system named is Dengue-2 (Strain New Guinea C). The assay is described as follows: viral yield assay against Dengue-2 in Vero cells. Particulars: Dengue virus; Vero cells, MOI 0.1, harvested 48 hours post infection; read-out: Activity (anti-dengue 2 viral activity, EC50). The format is cell-based. Here is the method: Compounds that were active in the primary screen were also tested for activity in viral yield assays. […] Vero cells in 12-well plates were infected with dengue-2 virus at a multiplicity of infection (MOI) of 0.1, treated with compound (or DMSO as a control), incubated at 37° C., harvested 48 hours post infection and titered on Vero cells as described above. The EC50 was calculated through ExcelFit. Those compounds with activity below 1 μM are indicated with “A”, those with activity between 1 and 10 μM are indicated with “B”, those with activity between 10 and 25 μM with “C”, and those with activity above 25 μM are indicated with “D”.

Structures are written as SMILES. pEC50: −log10 of the molar value.

Take `CN(C)S(=O)(=O)c1ccc(NC(=O)Cn2cnc3ccccc3c2=O)cc1` [Compound 50, N-(4-Dimethylsulfamoyl-phenyl)-2-(4-oxo-4H-quinazolin-3-yl)-acetamide]: the pEC50 (usually the EC50 on a negative log10 scale, so that one unit is a factor of ten) was below 4.60. Turning to `O=C(Cn1cnc2ccccc2c1=O)Nc1ccc(S(=O)(=O)N2CCCCCC2)cc1` [Compound 51, N-[4-(Azepane-1-sulfonyl)-phenyl]-2-(4-oxo-4H-quinazolin-3-yl)-acetamide], the pEC50 was below 4.60. As to `O=C(Cn1cnc2ccccc2c1=O)Nc1ccc(S(=O)(=O)N2CCCCC2)cc1` [Compound 52, 2-(4-Oxo-4H-quinazolin-3-yl)-N-[4-(piperidine-1-sulfonyl)-phenyl]-acetamide], the negative logarithm of the EC50 (pEC50) is below 4.60. As to `CC1CCCN(S(=O)(=O)c2ccc(NC(=O)Cn3cnc4ccccc4c3=O)cc2)C1` (stereo not drawn) [Compound 53, N-[4-(3-Methyl-piperidine-1-sulfonyl)-phenyl]-2-(4-oxo-4H-quinazolin-3-yl)-acetamide], the pEC50 is below 4.60. `COC(=O)CNS(=O)(=O)c1ccc(NC(=O)Cn2cnc3ccccc3c2=O)cc1` [Compound 54, {4-[2-(4-Oxo-4H-quinazolin-3-yl)-acetylamino]-benzene-sulfonylamino}-acetic acid methyl ester]: the pEC50 is below 4.60. Take `CC(C)(C)NS(=O)(=O)c1cccc(NC(=O)Cn2cnc3ccccc3c2=O)c1` [Compound 55, N-(3-tert-Butylsulfamoyl-phenyl)-2-(4-oxo-4H-quinazolin-3-yl)-acetamide]: the pEC50 was below 4.60. As for `CCN(CC)S(=O)(=O)c1ccc(NC(=O)Cn2cnc3sc(-c4ccccc4)cc3c2=O)cc1` [Compound 56, N-(4-Diethylsulfamoyl-phenyl)-2-(4-oxo-6-phenyl-4H-thieno[2,3-d]pyrimidin-3-yl)-acetamide], the negative-log EC50 (pEC50) is below 4.60. For `CCN(CC)S(=O)(=O)c1ccc(NC(=O)Cn2cnc3cc(F)ccc3c2=O)cc1` [Compound 57, N-(4-Diethylsulfamoyl-phenyl)-2-(7-fluoro-4-oxo-4H-quinazolin-3-yl)-acetamide], the pEC50 is below 4.60. In the case of `CCN(CC)S(=O)(=O)c1ccc(NC(=O)Cn2cnc3cc(OC)c(OC)cc3c2=O)cc1` [Compound 58, N-(4-Diethylsulfamoyl-phenyl)-2-(6,7-dimethoxy-4-oxo-4H-quinazolin-3-yl)-acetamicle] it was below 4.60; in that of `CCN(CC)S(=O)(=O)c1ccc(NC(=O)Cn2cnc3scc(-c4ccccc4)c3c2=O)cc1` [Compound 59, N-(4-Diethylsulfamoyl-phenyl)-2-(4-oxo-5-phenyl-4H-thieno[2,3-d]pyrimidin-3-yl)-acetamide], below 4.60; in that of `CCN(CC)S(=O)(=O)c1ccc(NC(=O)Cn2cnc3cc(NC)c([N+](=O)[O-])cc3c2=O)cc1` [Compound 60, N-(4-Diethylsulfamoyl-phenyl)-2-(7-methylamino-6-nitro-4-oxo-4H-quinazolin-3-yl)-acetamide], below 4.60. As to `CCN(CC)S(=O)(=O)c1ccc(NC(=O)Cn2cnc3cc(-c4ccc(OC)cc4)sc3c2=O)cc1` [Compound 61, N-(4-Diethylsulfamoyl-phenyl)-2-[6-(4-methoxy-phenyl)-4-oxo-4H-thieno[3,2-d]pyrimidin-3-yl]-acetamide], the pEC50 was below 4.60. Regarding `Cc1cccc2c(=O)n(CC(=O)Nc3ccc(S(=O)(=O)N(C)C)cc3)cnc12` [Compound 62, N-(4-Dimethylsulfamoyl-phenyl)-2-(8-methyl-4-oxo-4H-quinazolin-3-yl)-acetamide], the pEC50 is below 4.60.

In the case of `CCN(CC)S(=O)(=O)c1ccc(NC(=O)CNC(=O)c2cc(C)cc(C)c2)cc1` [Compound 63, N-[(4-Diethylsulfamoyl-phenylcarbamoyl)-methyl]-3,5-dimethyl-benzamide], the pEC50 was below 4.60.

`CCN(CC)S(=O)(=O)c1ccc(NC(=O)CSc2nc3ccccc3c(=O)n2CC)cc1` [Compound 64, N-(4-Diethylsulfamoyl-phenyl)-2-(3-ethyl-4-oxo-3,4-dihydro-quinazolin-2-ylsulfanyl)-acetamide]: the pEC50 is below 4.60.

Take `CCN(CC)S(=O)(=O)c1cccc(NC(=O)Cn2cnc3ccccc3c2=O)c1` [Compound 65, N-(3-Diethylsulfamoyl-phenyl)-2-(4-oxo-4H-quinazolin-3-yl)-acetamide]: the pEC50 is below 4.60. With `CCN(CC)S(=O)(=O)c1ccc(C(=O)OCc2nc3ccccc3c(=O)n2CC(N)=O)cc1` [Compound 66, 4-Diethylsulfamoyl-benzoic acid 3-carbamoylmethyl-4-oxo-3,4-dihydro-quinazolin-2-ylmethyl ester], the pEC50 is below 4.60. In the case of `CCN(CC)S(=O)(=O)c1ccc(C(=O)Nn2cnc3ccccc3c2=O)cc1` [Compound 67, 4-Diethylsulfamoyl-N-(4-oxo-4H-quinazolin-3-yl)-benzamide] it was below 4.60; in that of `CCN(CC)S(=O)(=O)c1ccc(C(C)NC(=O)CCn2nnc3ccccc3c2=O)cc1` (stereo not drawn) [Compound 68, N-[1-(4-Diethylsulfamoyl-phenyl)-ethyl]-3-(4-oxo-4H-benzo[d][1,2,3]triazin-3-yl)-propionamide], below 4.60. As to `CCN(CC)S(=O)(=O)c1ccc(CNC(=O)Cn2cnc3ccccc3c2=O)cc1` [Compound 69, N-(4-Diethylsulfamoyl-benzyl)-2-(4-oxo-4H-quinazolin-3-yl)-acetamide], the pEC50 is below 4.60. In the case of `CCN(CC)S(=O)(=O)c1ccc(NC(=O)CNC(=O)c2cccc(S(=O)(=O)N(C)C)c2)cc1` [Compound 70, N-[(4-Diethylsulfamoyl-phenylcarbamoyl)-methyl]-3-dimethylsulfamoyl-benzamide] it was below 4.60; in that of `CCN(CC)S(=O)(=O)c1ccc(NC(=O)CSc2nc3ccccc3c(=O)n2C)cc1` [Compound 71, N-(4-Diethylsulfamoyl-phenyl)-2-(3-methyl-4-oxo-3,4-dihydro-quinazolin-2-ylsulfanyl)-acetamide], below 4.60. In the case of `CCN(CC)S(=O)(=O)c1ccc(NC(=O)CNC(=O)c2ccc(C)cc2)cc1` [Compound 72, N-[(4-Diethylsulfamoyl-phenylcarbamoyl)-methyl]-4-methyl-benzamide] it was below 4.60; in that of `CCN(CC)S(=O)(=O)c1ccc(NC(=O)CNC(=O)c2ccc(S(=O)(=O)NC(C)C)cc2)cc1` [Compound 73, N-[(4-Diethylsulfamoyl-phenylcarbamoyl)-methyl]-4-isopropylsulfamoyl-benzamide], below 4.60.

On to `CCN(CC)S(=O)(=O)c1ccc(NC(=O)CNC(=O)c2ccc3ccccc3c2)cc1` [Compound 74, Naphthalene-2-carboxylic acid[(4-diethylsulfamoyl-phenylcarbamoyl)-methyl]-amide], for which the pEC50 was below 4.60. In the case of `CCN(CC(=O)Nc1ccc(S(=O)(=O)N(CC)CC)cc1)Cc1nc2cc(Cl)ccc2c(=O)[nH]1` [Compound 75, 2-[(7-Chloro-4-oxo-3,4-dihydro-quinazolin-2-ylmethyl)-ethyl-amino]-N-(4-diethylsulfamoyl-phenyl)-acetamide] it was below 4.60.

Turning to `CCN(CC)C(=O)c1ccc(NCC(=O)Nc2ccc(S(=O)(=O)N(CC)CC)cc2)cc1` [Compound 76, 4-{[(4-Diethylsulfamoyl-phenylcarbamoyl)-methyl]-amino}-N,N-diethyl-benzamide], the pEC50 is below 4.60.

In the case of `CCN(CC)S(=O)(=O)c1ccc(NC(=O)CCn2nnc3ccccc3c2=O)cc1` [Compound 77, N-(4-Diethylsulfamoyl-phenyl)-3-(4-oxo-4H-benzo[d][1,2,3]triazin-3-yl)-propionamide], the pEC50 is below 4.60. Consider `CCN(CC)S(=O)(=O)c1ccc(NC(=O)Cn2c(=O)n(CC)c(=O)c3ccccc32)cc1` [Compound 78, N-(4-Diethylsulfamoyl-phenyl)-2-(3-ethyl-2,4-dioxo-3,4-dihydro-2H-quinazolin-1-yl)-acetamide], for which the pEC50 is below 4.60.

Take `CCN(CC)S(=O)(=O)c1ccc(NC(=O)CNC(=O)c2ccc(OC)c(OC)c2)cc1` [Compound 79, N-[(4-Diethylsulfamoyl-phenylcarbamoyl)-methyl]-3,4-dimethoxy-benzamide]: the pEC50 was below 4.60.

`CCN(CC)S(=O)(=O)c1ccc(NC(=O)CNC(=O)c2ccc(-c3ccccc3)cc2)cc1` [Compound 80, Biphenyl-4-carboxylic acid [(4-diethylsulfamoyl-phenylcarbamoyl)-methyl]-amide]: the pEC50 is below 4.60.

As for `CCN(CC)S(=O)(=O)c1ccc(NC(=O)COC(=O)Cn2nnc3ccccc3c2=O)cc1` [Compound 81, (4-Oxo-4H-benzo[d][1,2,3]triazin-3-yl)-acetic acid (4-diethylsulfamoyl-phenylcarbamoyl)-methyl ester], the pEC50 is below 4.60. As to `O=C(Cn1nnc2ccccc2c1=O)Nc1ccc(S(=O)(=O)N2CCOCC2)cc1` [Compound 82, N-[4-(Morpholine-4-sulfonyl)-phenyl]-2-(4-oxo-4H-benzo[d][1,2,3]triazin-3-yl)-acetamide], the pEC50 was below 4.60.

Consider `CC(NS(=O)(=O)c1ccc(NC(=O)Cn2nnc3ccccc3c2=O)cc1)C1CC2CCC1C2` (stereo not drawn) [Compound 83, N-[4-(1-Bicyclo[2.2.1]hept-2-yl-ethylsulfamoyl)-phenyl]-2-(4-oxo-4H-benzo[d][1,2,3]triazin-3-yl)-acetamide], for which the pEC50 is below 4.60. In the case of `CON(C)S(=O)(=O)c1ccc(NC(=O)Cn2nnc3ccccc3c2=O)cc1` [Compound 84, N-[4-(Methoxy-methyl-sulfamoyl)-phenyl]-2-(4-oxo-4H-benzo[d][1,2,3]triazin-3-yl)-acetamide], the pEC50 was below 4.60.

Consider `CN(C)S(=O)(=O)c1ccc(NC(=O)Cn2nnc3ccccc3c2=O)cc1` [Compound 85, N-(4-Dimethylsulfamoyl-phenyl)-2-(4-oxo-4H-benzo[d][1,2,3]triazin-3-yl)-acetamide], for which the pEC50 was below 4.60.
